ChEMBL document CHEMBL1151563, “Synthesis of sialic acid-lipid conjugates and their neuritogenic effects on N1E.115 neuroblastoma cells” (1995)

Key:
[1] = test system: N1E-115; assay: Effect of compound on neurite outgrowth by measuring presence of cytoskeletal component in neurofilament (NF) ELISA assay at 3 uM; value ranges from 75-85; type: functional, Mus musculus
[2] = NF/NR ratio is average amount of neurofilament per cell was determined at 3 uM; value ranges from 105-115; type: functional
[3] = test system: N1E-115; assay: Neuritogenic activity of compound was determined at 3 uM; value ranges from 105-115; type: functional, Mus musculus
[4] = test system: N1E-115; assay: Effect of compound on neurite outgrowth by measuring presence of cytoskeletal component in neurofilament (NF) ELISA assay at 1 uM; value ranges from 95-105; type: functional, Mus musculus
[5] = NF/NR ratio is average amount of neurofilament per cell was determined at 1 uM; value ranges from 95-105; type: functional
[6] = test system: N1E-115; assay: Neuritogenic activity of compound was determined at 1 uM; value ranges from 95-105; type: functional, Mus musculus
[7] = test system: N1E-115; assay: In neutral red (NR) assay the cell number relative to control was determined at 1 uM; value ranges from 95-105; type: functional, Mus musculus
[8] = test system: N1E-115; assay: In neutral red (NR) assay the cell number relative to control was determined at 3 uM; value ranges from 65-75; type: functional, Mus musculus
[9] = test system: N1E-115; assay: Effect of compound on neurite outgrowth by measuring presence of cytoskeletal component in neurofilament (NF) ELISA assay at 3 uM; value ranges from 95-105; type: functional, Mus musculus
[10] = test system: N1E-115; assay: In neutral red (NR) assay the cell number relative to control was determined at 3 uM; value ranges from 75-85; type: functional, Mus musculus
[11] = NF/NR ratio is average amount of neurofilament per cell was determined at 3 uM; value ranges from 115-125; type: functional
[12] = NF/NR ratio is average amount of neurofilament per cell was determined at 1 uM; value ranges from 105-115; type: functional
[13] = test system: N1E-115; assay: Neuritogenic activity of compound was determined at 3 uM; value ranges from 115-125; type: functional, Mus musculus
[14] = test system: N1E-115; assay: Neuritogenic activity of compound was determined at 1 uM; value ranges from 105-115; type: functional, Mus musculus
[15] = test system: N1E-115; assay: In neutral red (NR) assay the cell number relative to control was determined at 1 uM; value ranges from 75-85; type: functional, Mus musculus
[16] = test system: N1E-115; assay: Neuritogenic activity of compound was determined at 3 uM; value ranges from 125-135; type: functional, Mus musculus
[17] = NF/NR ratio is average amount of neurofilament per cell was determined at 3 uM; value ranges from 125-135; type: functional
[18] = test system: N1E-115; assay: Neuritogenic activity of compound was determined at 3 uM; value ranges from 95-105; type: functional, Mus musculus
[19] = NF/NR ratio is average amount of neurofilament per cell was determined at 3 uM; value ranges from 95-105; type: functional

Row | SMILES | Activity [1] | Ratio [2] | Activity [3] | Activity [4] | Ratio [5] | Activity [6] | Activity [7] | Activity [8] | Activity [9] | Activity [10] | Ratio [11] | Ratio [12] | Activity [13] | Activity [14] | Activity [15] | Activity [16] | Ratio [17] | Activity [18] | Ratio [19]
1 | CC(=O)NC1C(O)CC(OC2CC[C@@]3(C)C(=CCC4[C@@H]5CC[C@H]([C@@H](C)CCCC(C)C)[C@@]5(C)CC[C@@H]43)C2)(C(=O)[O-])OC1[C@@H](O)[C@H](O)CO.[Na+] (some centres undefined) | 75% | 105 | 105% | 95% | 95 | 95% | 95% | 65% |  |  |  |  |  |  |  |  |  |  | 
2 | CCCCCCCCCCCCCCCCOCOCCCO[C@]1(C(=O)O)C[C@@H](O)[C@@H](NC(C)=O)C([C@@H](O)[C@H](O)CO)O1 (some centres undefined) |  | 105 | 105% | 95% | 95 | 95% | 95% |  | 95% |  |  |  |  |  |  |  |  |  | 
3 | CC(=O)NC1C(O)CC(OCCCOCOC2CC[C@@]3(C)C(=CCC4[C@@H]5CC[C@H]([C@@H](C)CCCC(C)C)[C@@]5(C)CC[C@@H]43)C2)(C(=O)[O-])OC1[C@@H](O)[C@H](O)CO.[Na+] (some centres undefined) |  |  |  | 95% |  |  |  |  | 95% | 75% | 115 | 105 | 115% | 105% | 75% |  |  |  | 
4 | CCCCCCCCCCCCCCCCOC1(C(=O)[O-])CC(O)C(NC(C)=O)C([C@@H](O)[C@H](O)CO)O1.[Na+] (some centres undefined) |  | 105 | 105% | 95% |  |  |  |  | 95% | 75% |  | 105 |  | 105% | 75% |  |  |  | 
5 | CC(=O)NC1C(O)CC(OCCCOCOCC(COCOCCCOC2(C(=O)[O-])CC(O)C(NC(C)=O)C([C@@H](O)[C@H](O)CO)O2)(COCOCCCOC2(C(=O)[O-])CC(O)C(NC(C)=O)C([C@@H](O)[C@H](O)CO)O2)CO[C@H]2CCC3(C)C(=CCC4[C@@H]3CCC3(C)[C@@H](C(C)CCCC(C)C)CC[C@@H]43)C2)(C(=O)[O-])OC1[C@@H](O)[C@H](O)CO.[Na+].[Na+].[Na+] (some centres undefined) |  |  |  | 95% |  |  |  |  | 95% | 85% |  | 105 |  | 105% |  | 125% | 125 |  | 
6 | CC(C)CCC[C@@H](C)[C@H]1CCC2C3CC=C4CC(C(C(=O)O)C(=O)O)CC[C@]4(C)C3CC[C@@]21C (some centres undefined) |  |  |  | 95% | 95 | 95% |  |  | 95% |  |  |  |  |  |  |  |  | 95% | 95
